Source: patent publication US20250082649A1, “ALTERATION OF NUTRIENT PREFERENCES VIA MODULATION OF NUTRIENT RECEPTORS IN THE GUT” (The Trustees of Columbia University in the City of New York, priority 2022, published 2025)
“Also recorded” adds a separate entry of the source.

Columns and labels:
[1] = system: mice; assay: Brief-access (30 min) two-bottle tests, immediate attraction; type: in vivo; conditions: 30 min two-bottle test, 3 mM AceK or 1.5% Intralipid, n=9 mice
Procedure: Two-bottle preference assays. No behavioral experiments, including the short-term assays for taste responses, or the 48 h tests examining the development of sugar or fat preference used water-restricted or food-deprived mice. Mice were given ad libitum access to food and water for several days prior to the behavioral tests; any food or water restriction would severely affect the mice's behavior in preference or taste responses. Development of fat preference: mice were first tested for their initial preference between 1.5% Intralipid and 3 mM AceK (pre testing) by completing 100 drinking trials. Each trial was initiated by the first lick and lasted for 5 s; the drinking ports then re-opened after 30 s of inter-trial interval. Next, mice were exposed to 500 licks to both 1.5% Intralipid and 3 mM AceK; this was repeated twice. […] The pre and post-preference indexes were calculated by dividing the number of licks to fat by the total lick count during the first 2-4 h (100 trials) of baseline measurements (pre) and during the last 2-4 h (100 trials) of the behavioural session (post), respectively. […] The ‘pre’ preference index was calculated as the number of licks to fat divided by the total lick count during the first 4 h; the “post” preference index was calculated as the number of licks to fat divided by the total lick count during the last 4 h of the session. […]

[2] = system: vagal sensory neurons; assay: Vagal calcium imaging (nodose ganglion, GCaMP6s) with intestinal delivery of stimuli; type: in vivo, mice; conditions: for responding vagal neurons of imaged neurons: intestinal delivery, 10% fatty acid or pre-digested Intralipid, FIG. 10E-10I stimuli interleaved with 10% LA (10 s)
Procedure: To directly examine and monitor the fat responses of vagal sensory neurons, functional imaging of the nodose ganglion (which contains the cell bodies of vagal neurons) was performed. The genetically encoded activity sensor GCaMP6s was targeted to vagal sensory neurons using Vglut2-Cre animals, and a one-photon calcium imaging set-up was used coupled to synchronous intestinal delivery of fat, sugar and other stimuli to record neuronal responses in vivo, with real time kinetics (FIG. 2E, FIG. 10A, FIG. 10B, FIG. 10C). To administer the stimuli, a catheter was placed into the duodenal bulb, and an exit port was created by transecting the intestine 10 cm distally. During each imaging session, the intestine was exposed to a pre-stimulus application of PBS, a 10 s or 60 s exposure to the test stimulus, and a 200 s post-stimulus wash; this regime was repeated at least 3 times for each stimulus.
Fat, sugar and amino acid intestinal stimulation. Stimuli for nodose imaging experiments were as follows. Sugar: 500 mM glucose. Amino acids: a mix consisting of 50 mM methionine, 50 mM serine, 50 mM alanine, 50 mM glutamine and 50 mM cysteine dissolved in PBS. Fat: 10% linoleic acid, 10% linolenic acid, 10% hexanoic acid, 10% DHA, 10% oleic acid, diluted in PBS containing 0.1% xanthan gum and 0.05% Tween 80, and vortexed for a minimum of 10 min. Vehicle control: 0.1% xanthan gum and 0.05% Tween 80. For sugar and fat intestinal stimulation in imaging experiments, a 10 s window of stimulation was used; for amino acids, a 60 s stimulus was used, as lower concentrations of each in the mix of several amino acids was used (see above). Note that if using Intralipid mix (a 20% soy bean oil emulsion, Santa Cruz) for nodose imaging experiments (rather than consumption where it would be naturally digested and broken down into short, medium and long chain fatty acids), the material was pre-digested with lipases (mimicking its natural course of action upon ingestion). […] Intralipid was incubated with 4 mg/ml lipase (sigma) in PBS plus 10 mM CaCl2 for a minimum of 5 h at 37° C.
Vagal calcium imaging. Each mouse was anaesthetized with ketamine (100 mg/kg) and xylazine (10 mg/kg). […] For glutamate receptor blocker experiments, a mixture of metabotropic glutamate receptor antagonist AP3 (2 mg/kg) and ionotropic glutamate receptor antagonist kynurenic acid (300 μg/kg) was used. CCKAR and glutamate receptor blockers were delivered both into the intestines and abdominal cavity; after a 5 min incubation period, the imaging session was started.
Calcium imaging data collection and analysis. […] Data was acquired at 5 Hz. A single field of view was chosen for recording and analysis from each ganglion. Calcium imaging data collected at 5 Hz was down-sampled by a factor of 2, and the images were stabilized using the NORMCorre algorithm. Motion-corrected movies were then manually segmented in ImageJ using the Cell Magic Wand plugin. Neuropil fluorescence was subtracted from each region of interest with the FISSA toolbox, and neural activity was denoised using the OASIS deconvolution algorithm. […] For experiments using blockers, two repeat trials per stimuli were used to accommodate the expanded time scale of the session (that is, before and after), and a neuron was considered a responder if it responded in both trials. The two-trial average area under curve for each stimulus was used to quantify the before and after responses (FIG. 12D, FIG. 12E). Imaging data is presented as heat maps of z-score-normalized responses.

[3] = system: cNST neurons; assay: Fibre photometry of cNST activity in response to intestinal delivery of stimuli; type: in vivo, mice; conditions: Penk-Cre animals
Procedure: Fibre photometry. Vglut2-cre; Ai96 mice were placed in a stereotaxic frame and implanted with a 400 μm core, 0.48 NA optical fibre (Doric Lenses) 50-100 μm over the left cNST. […] To quantify the effects of vagotomy, the ratio of stimulus-related peak amplitude of the normalized trace was calculated (within 120 s of stimulus onset) prior vagotomy versus after vagotomy. […] Stimulus delivery was performed via a series of peristaltic pumps (BioChem Fluidics) operated via custom Matlab software and Arduino microcontroller. Stimuli and washes were delivered through separate lines that converged on a common perfusion manifold (Warner Instruments) connected to the duodenal catheter. Trials consisted of a 60-s baseline (PBS 200 μl/min), a 30 s stimulus (200 μl/min), and a 3-min washout period (150 s at 600 μl/min, and 30 s at 150 μl/min). Stimuli were each presented three times in an interleaved fashion.

[4] = system: cNST; assay: Fos stimulation and histology, cNST; type: in vivo, mice; conditions: 90 min exposure; 20% Intralipid, 10% linoleic acid or 10% oleic acid vs xanthan gum / mineral oil controls
Excerpt: Separate cohorts of animals were exposed to 3 different lipid stimuli (Intralipid, linoleic acid, or oleic acid) and to fat-free textural controls (xanthan gum or mineral oil). […] The cNST is a nexus of interoceptive signals conveying information from the body to the brain via the gut-brain axis. If the fat-activated brain cNST neurons are receiving signals originating in the gut, then direct delivery of fat stimuli into the gut should also induce activation of the cNST. An intragastric catheter was implanted in the stomach and infused either a fat solution or a vehicle control. Intragastric infusion of fat, but not of a vehicle, is sufficient to activate the cNST as robustly as oral ingestion (FIG. 1E, FIG. 1F, FIG. 8J, FIG. 8K, FIG. 8L).
Fos stimulation and histology. Stimuli consisted of 20% Intralipid (sc215182, Santa Cruz Biotechnology), 10% linoleic acid, 10% oleic acid, 0.3% xanthan gum or 10% mineral oil. Stimuli were emulsified by dilution into milliQ water containing 0.1% xanthan gum and 0.05% Tween 80, and vortexed for a minimum of 10 min. […] Quantification of Fos labelling was carried out by recording the number of positive neurons in an equivalent 200×200 um area of the cNST (bregma—7.5 mm) and area postrema. […]

[5] = system: vagal neurons; assay: CCK application in vagal calcium imaging; type: in vivo, mice; conditions: 1 μg/ml CCK, 60 s
Excerpt: Calcium imaging data collection and analysis. […] Data was acquired at 5 Hz.

CC1=CC(=O)[N-]S(=O)(=O)O1.[K+] [AceK, acesulfame K]
immediate attraction versus water [1]: strong innate attraction

CC/C=C\C/C=C\C/C=C\CCCCCCCC(=O)O [alpha-linolenic acid]
responding vagal neurons of imaged neurons [2]: 49/322

CN1C(=O)[C@@H](NC(=O)c2cc3ccccc3[nH]2)N=C(c2ccccc2)c2ccccc21 [devazepide, Devazepide]
cNST responses to intestinal fat stimulation after removing CCK-dependent signaling ([3]; photometric recordings, n=5): ~50% | cNST sugar-evoked responses after inhibiting signaling via the CCK dependent pathway ([3]; photometric recordings, n=5): completely abolished

CC/C=C\C/C=C\C/C=C\C/C=C\C/C=C\C/C=C\CCC(=O)O [docosahexaenoic acid]
responding vagal neurons of imaged neurons [2]: 51/348

CCCCCC(=O)O [hexanoic acid]
responding vagal neurons of imaged neurons [2]: 52/495

CCCCC/C=C\C/C=C\CCCCCCCC(=O)O [linoleic acid]
Fos labelling in cNST upon ingestion [4]: strong Fos labelling; also recorded: strong bilateral activation | neurons that responded only to fat (fat-only responders) ([2]; 10% linoleic acid and 500 mM glucose, 10 s, 1813 neurons imaged, 22 vagal ganglia): 153 | TRPA1-expressing vagal neurons responding to fat ([2]; Trpa1-Cre, Ai162, 163 imaged neurons from 5 ganglia, 10% linoleic acid): ~24% | subset of vagal neurons with evoked responses, % of GCaMP-expressing Vglut2 neurons ([2]; intestinal infusion, Vglut2-Cre animals): 17% | vagal neuron responses to intestinal delivery ([2]; vs vehicle control (0.1% xanthan gum plus 0.05% Tween 80)): strong responses; also recorded: robust responses | cNST neural responses to intestinal delivery ([3]; 10% linoleic acid or 500 mM glucose, n=4 mice): robust, time-locked responses

CCCCCCCC/C=C\CCCCCCCC(=O)O [oleic acid]
Fos labelling in cNST upon ingestion [4]: strong Fos labelling; also recorded: strong bilateral activation | responding vagal neurons of imaged neurons [2]: 39/418

Cholecystokinin [CCK]
activation of fat-only vagal neurons [5]: not the fat-only vagal neurons | activation of sugar/nutrient responding vagal neurons [5]: all sugar/nutrient responders were activated; also recorded: also responded to CCK | activation of sugar/nutrient responding vagal neurons ([5]; listed as CCK peptide): strongly activated
